Experimental data: patent US12667626B2, “Compositions and methods relating to erythrocytes with adhered particles” (PRESIDENT AND FELLOWS OF HARVARD COLLEGE, priority 2019, dated 2026)

Assays:
[1] = Chemokine gradient assay (CXCL10 in lung and blood); assay type: in vivo, mice; conditions: 5× higher dose, free form
Experimental: The chemokine gradient assay was conducted on the early-stage lung metastasis model as follows. To evaluate chemokine gradient restoration capability of the therapy, early-stage spontaneous lung metastasis model was established as described in the previous context. One saline and three treatment groups (5× free CXCL10 chemokine, ImmunoBait with anti-ICAM-1, and erythrocyte hitchhiked ImmunoBait with anti-ICAM-1) were included into the study. Treatments were given starting one week after surgery. Two injection sets were given on day 7 and day 10 after surgery. (n=4-5 for each time point for each group). Mice were sacrificed at 20 mins and 6 h after the second injection, blood was collected by cardiac puncture and lungs were excised. Chemokine content in lungs and blood were quantified as described above.
The chemokine gradient assay was conducted on the early-stage lung metastasis model as follows. To evaluate chemokine gradient restoration capability of the therapy, early-stage spontaneous lung metastasis model was established as described in the previous context. One saline and three treatment groups (5× free CXCL10 chemokine containing 12.5 μg CXCL10, ImmunoBait with anti-ICAM-1 containing 2.5 μg CXCL10, and erythrocyte hitchhiked ImmunoBait with anti-ICAM-1 containing 2.5 μg CXCL10) were included into the study. […] Chemokine content in lungs and blood were quantified as described above.

[2] = tested on: B16F10-Luc melanoma lung metastasis; test: Efficacy in early-stage B16F10-Luc lung metastasis model; assay type: in vivo, mice
Experimental: Efficacy studies on in vivo experimental lung metastasis model. Experimental lung metastasis model was established by intravenous injection of 1×10^5 B16F10-Luc cells in to the tail vein of female C57BL/6 mice. Efficacy for the treatment groups was evaluated in an early stage and late stage metastatic models. Mice were randomized based on the bioluminescence intensity in the lungs one day before the first injection of therapies. A control (Saline) group and three treatment groups (DOX-NPs, RBC-NPs, free DOX) at a dose of 5.2 mg/kg were evaluated for their efficacy (n=7 for all groups, unless otherwise specified).
For the early-stage metastatic model, treatments were given starting the day after the inoculation. Four injections were given over six days, i.e. day 1, 3, 5 and 7 after inoculation. On days 6, 8, 10, 12, 18, 23, 31 after inoculation, the mice were imaged using in vivo imaging (Perkin Elmer IVIS Spectrum™, MA, USA). Briefly, mice were injected intraperitoneally with 150 μL of 30 mg/mL Xenolight™-D-luciferin in saline. […] The average radiance (bioluminescence intensity) was evaluated using the software Living System®. The animals were further monitored for their survival.

Compound | chemokine gradient established [1] | lung metastasis burden inhibited ([2]; day 16, early-stage model) [%] | median survival time ([2]; early-stage model, control 29 days) [days] | body weight change ([2]; treatment period, 5.2 mg/kg)
CXCL10 [free chemokine] | weak chemokine gradient | – | – | –
COc1cccc2c1C(=O)c1c(O)c3c(c(O)c1C2=O)C[C@@](O)(C(=O)CO)C[C@@H]3O[C@H]1C[C@H](N)[C@H](O)[C@H](C)O1 [free drug, doxorubicin] | – | 94.2 | 32 | sharp decline in the body weight
